According to PubChem BioAssay AID256 (DTP/NCI, 2004):
“And” between values parts separate entries of the source, which are not always exact repeats. Equal entries are not always repeated. Inconclusive results and toxic doses are left out. Rule for the calls: active = survival T/C of 150% or more; inactive = T/C below 125% in these data.

Tested on: CD2F1 mice, L1210 leukemia ip, survival T/C
Experiment: NCI In Vivo Anticancer Drug Screen. Data for tumor model L1210 Leukemia (intraperitoneal) in CD2F1 (CDF1) mice
Conditions: higher = longer survival
In short: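 Activity against a transplanted murine tumor was judged by comparing the compound group with a vehicle group. The outcome in the treated animals was divided by that in the controls.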

[1] = endpoint: mean survival time, dose: 100.0 mg/kg/injection, schedule: Q04DX003 (ip), vehicle: Klucel (hydroxypropylcellulose) (HPC)
[2] = endpoint: mean survival time, dose: 200.0 mg/kg/injection, schedule: Q04DX003 (ip), vehicle: Klucel (hydroxypropylcellulose) (HPC)
[3] = endpoint: mean survival time, dose: 400.0 mg/kg/injection, schedule: Q04DX003 (ip), vehicle: Klucel (hydroxypropylcellulose) (HPC)
[4] = endpoint: mean survival time, dose: 100.0 mg/kg/injection, schedule: Q04DX003 (ip), vehicle: saline with Tween-80
[5] = endpoint: mean survival time, dose: 200.0 mg/kg/injection, schedule: Q04DX003 (ip), vehicle: saline with Tween-80
[6] = endpoint: mean survival time, dose: 400.0 mg/kg/injection, schedule: Q04DX003 (ip), vehicle: saline with Tween-80
[7] = endpoint: mean survival time, dose: 100.0 mg/kg/injection, schedule: Q01DX009 (ip), vehicle: saline with Tween-80
[8] = endpoint: mean survival time, dose: 200.0 mg/kg/injection, schedule: Q01DX009 (ip), vehicle: saline with Tween-80
[9] = endpoint: mean survival time, dose: 400.0 mg/kg/injection, schedule: Q01DX009 (ip), vehicle: saline with Tween-80
[10] = endpoint: mean survival time, dose: 100.0 mg/kg/injection, schedule: Q04DX002 (ip), vehicle: saline with Tween-80
[11] = endpoint: mean survival time, dose: 200.0 mg/kg/injection, schedule: Q04DX002 (ip), vehicle: saline with Tween-80
[12] = endpoint: mean survival time, dose: 50.0 mg/kg/injection, schedule: Q01DX009 (ip), vehicle: saline with Tween-80
[13] = endpoint: mean survival time, dose: 25.0 mg/kg/injection, schedule: Q01DX009 (ip), vehicle: saline with Tween-80

Measured: T/C

COc1cc(NC(C)CCCN)c2ncccc2c1 (centres undefined)
inactive: endpoint: mean survival time, dose: 12.5 mg/kg/injection, schedule: Q01DX009 (ip), vehicle: saline sonified 102 % of control | endpoint: mean survival time, dose: 12.5 mg/kg/injection, schedule: Q04DX003 (ip), vehicle: saline with Tween-80 104 % of control | endpoint: mean survival time, dose: 25.0 mg/kg/injection, schedule: Q01DX009 (ip), vehicle: saline sonified 97 % of control | endpoint: mean survival time, dose: 25.0 mg/kg/injection, schedule: Q04DX003 (ip), vehicle: saline with Tween-80 93 % of control | endpoint: mean survival time, dose: 50.0 mg/kg/injection, schedule: Q01DX009 (ip), vehicle: saline sonified 102 % of control | endpoint: mean survival time, dose: 50.0 mg/kg/injection, schedule: Q04DX003 (ip), vehicle: saline with Tween-80 101 % of control

CCOC(=O)C(C)C(O)(c1ccccc1)c1ccccc1 (centres undefined)
inactive: [1] 95 % of control | [2] 101 % of control | [3] 95 % of control

O=S(=O)(O)c1ccccc1O
inactive: endpoint: mean survival time, dose: 100.0 mg/kg/injection, schedule: Q01DX009 (ip), vehicle: saline 101 % of control

CSc1nc(NC2OC(CO)C(O)C(O)C2O)c(Br)c(=O)n1C (centres undefined)
inactive: endpoint: median survival time, dose: 12.5 mg/kg/injection, schedule: Q01DX005 (ip), vehicle: saline with Tween-80 98 % of control | endpoint: median survival time, dose: 25.0 mg/kg/injection, schedule: Q01DX005 (ip), vehicle: saline with Tween-80 100 % of control | endpoint: median survival time, dose: 50.0 mg/kg/injection, schedule: Q01DX005 (ip), vehicle: saline with Tween-80 96 % of control | endpoint: median survival time, dose: 100.0 mg/kg/injection, schedule: Q01DX005 (ip), vehicle: saline with Tween-80 101 % of control

O=C(COc1ccc(Cl)cc1Cl)Nc1cc[n+](Cc2ccc(S(=O)(=O)F)cc2)cc1
inactive: [4] 98 % of control | [5] 98 % of control | [6] 95 % of control

O=C(O)CCn1ccccc1=O
inactive: [7] 94 % of control | [4] 95 % of control | [8] 93 % of control | [5] 96 % of control | [9] 94 % of control | [6] 95 % of control

O=S1(=O)CCCCN1c1ccccn1
inactive: [10] 102 % of control | [11] 94 % of control | endpoint: mean survival time, dose: 400.0 mg/kg/injection, schedule: Q04DX002 (ip), vehicle: saline with Tween-80 105 % of control

Oc1cc(O)cc(/C=C/c2ccc(O)c(O)c2)c1
inactive: endpoint: median survival time, dose: 6.25 mg/kg/injection, schedule: Q01DX009 (ip), vehicle: DMSO 103 % of control | endpoint: median survival time, dose: 12.5 mg/kg/injection, schedule: Q01DX009 (ip), vehicle: DMSO 109 % of control | endpoint: median survival time, dose: 25.0 mg/kg/injection, schedule: Q01DX009 (ip), vehicle: DMSO 108 % of control and 109 % of control | endpoint: median survival time, dose: 50.0 mg/kg/injection, schedule: Q01DX009 (ip), vehicle: DMSO 108 % of control and 109 % of control | endpoint: median survival time, dose: 100.0 mg/kg/injection, schedule: Q01DX009 (ip), vehicle: DMSO 109 % of control

CC(=O)Oc1cccc(/C=C/[N+](=O)[O-])c1
inactive: endpoint: mean survival time, dose: 75.0 mg/kg/injection, schedule: Q01DX001 (ip), vehicle: steriod suspending solution 97 % of control | endpoint: mean survival time, dose: 150.0 mg/kg/injection, schedule: Q01DX001 (ip), vehicle: steriod suspending solution 97 % of control | endpoint: mean survival time, dose: 300.0 mg/kg/injection, schedule: Q01DX001 (ip), vehicle: steriod suspending solution 110 % of control

C[Si](C)(c1ccccc1C(=O)Nc1ccccc1)c1ccccc1C(=O)Nc1ccccc1
inactive: [4] 92 % of control | [5] 96 % of control | [6] 101 % of control

O.O=[N+]([O-])O.[NH-]C1CCCCC1[NH-].[Pt+2] (centres undefined)
inactive: endpoint: mean survival time, dose: 0.32 mg/kg/injection, schedule: Q04DX003 (ip), vehicle: other 113 % of control | endpoint: mean survival time, dose: 0.63 mg/kg/injection, schedule: Q04DX003 (ip), vehicle: other 119 % of control

CC1(C)CC(C)(c2ccc(O)cc2)c2ccccc2O1 (centres undefined)
inactive: [7] 90 % of control | [4] 92 % of control | [8] 92 % of control | [5] 92 % of control | [9] 91 % of control | [6] 90 % of control

C=CCCCCCCCCC(=O)NCC[N+](C)(C)C
inactive: endpoint: mean survival time, dose: 6.25 mg/kg/injection, schedule: Q01DX009 (ip), vehicle: saline 104 % of control | endpoint: mean survival time, dose: 6.25 mg/kg/injection, schedule: Q04DX003 (ip), vehicle: saline 96 % of control | endpoint: mean survival time, dose: 12.5 mg/kg/injection, schedule: Q01DX009 (ip), vehicle: saline 101 % of control | endpoint: mean survival time, dose: 12.5 mg/kg/injection, schedule: Q04DX003 (ip), vehicle: saline 97 % of control | endpoint: mean survival time, dose: 25.0 mg/kg/injection, schedule: Q01DX009 (ip), vehicle: saline 106 % of control | endpoint: mean survival time, dose: 25.0 mg/kg/injection, schedule: Q04DX003 (ip), vehicle: saline 102 % of control

CCCc1ccc(OC)cc1
inactive: [12] 103 % of control | [7] 97 % of control | [4] 98 % of control | [5] 94 % of control

O=C(NC(COCc1ccccc1)C(=O)O)OCc1ccccc1 (centres undefined)
inactive: [4] 88 % of control | [5] 92 % of control | [6] 100 % of control

CCCCOC(=O)COc1c(Cl)ccc(Cl)c1Cl
inactive: [10] 102 % of control | [11] 95 % of control

O=C1OC(OC(=O)c2ccccc2)C(Nc2ccccc2)=C1Br (centres undefined)
inactive: [7] 101 % of control | [8] 101 % of control | [9] 97 % of control

O=C1c2ccccc2CC12OC2c1ccccc1 (centres undefined)
inactive: endpoint: mean survival time, dose: 25.0 mg/kg/injection, schedule: Q01DX009 (ip), vehicle: Klucel (hydroxypropylcellulose) (HPC) 103 % of control | endpoint: mean survival time, dose: 50.0 mg/kg/injection, schedule: Q01DX009 (ip), vehicle: Klucel (hydroxypropylcellulose) (HPC) 110 % of control | endpoint: mean survival time, dose: 100.0 mg/kg/injection, schedule: Q01DX009 (ip), vehicle: Klucel (hydroxypropylcellulose) (HPC) 89 % of control | endpoint: mean survival time, dose: 200.0 mg/kg/injection, schedule: Q01DX009 (ip), vehicle: Klucel (hydroxypropylcellulose) (HPC) 98 % of control | endpoint: mean survival time, dose: 400.0 mg/kg/injection, schedule: Q01DX009 (ip), vehicle: Klucel (hydroxypropylcellulose) (HPC) 98 % of control

O=C([O][Sb]([O]C(=O)C(Br)Br)([c]1ccccc1)([c]1ccccc1)[c]1ccccc1)C(Br)Br
inactive: [4] 95 % of control | [5] 89 % of control | [6] 95 % of control

C=C(Br)CNC(=O)C(O)(c1ccccc1)c1ccccc1
inactive: endpoint: mean survival time, dose: 100.0 mg/kg/injection, schedule: Q01DX001 (ip), vehicle: saline with Tween-80 103 % of control | endpoint: mean survival time, dose: 200.0 mg/kg/injection, schedule: Q01DX001 (ip), vehicle: saline with Tween-80 87 % of control | endpoint: mean survival time, dose: 400.0 mg/kg/injection, schedule: Q01DX001 (ip), vehicle: saline with Tween-80 89 % of control

CCCCCOC(=S)S
inactive: endpoint: mean survival time, dose: 9.37 mg/kg/injection, schedule: Q04DX003 (ip), vehicle: Klucel (hydroxypropylcellulose) (HPC) 86 % of control | endpoint: mean survival time, dose: 37.5 mg/kg/injection, schedule: Q04DX003 (ip), vehicle: Klucel (hydroxypropylcellulose) (HPC) 86 % of control

CCCC(=O)C(CC)C(O)(C(F)(F)F)C(F)(F)F (centres undefined)
inactive: [1] 95 % of control | [2] 108 % of control | [3] 86 % of control

CC1CC(C)CC(C)C(O)/C(C#N)=C/C=C/CC(C2CCCC2C(=O)O)OC(=O)CC(O)C(C)C1 (centres undefined)
inactive: endpoint: mean survival time, dose: 1.56 mg/kg/injection, schedule: Q01DX009 (ip), vehicle: Klucel (hydroxypropylcellulose) (HPC) 105 % of control | endpoint: mean survival time, dose: 3.13 mg/kg/injection, schedule: Q01DX009 (ip), vehicle: Klucel (hydroxypropylcellulose) (HPC) 109 % of control | endpoint: mean survival time, dose: 6.25 mg/kg/injection, schedule: Q01DX009 (ip), vehicle: Klucel (hydroxypropylcellulose) (HPC) 89 % of control and 96 % of control

N#Cc1cn(C2OC(CO)C(O)C2O)c2nc(NN)nc(N)c12 (centres undefined)
inactive: endpoint: mean survival time, dose: 1.56 mg/kg/injection, schedule: Q01DX005 (ip), vehicle: water 105 % of control | endpoint: mean survival time, dose: 3.13 mg/kg/injection, schedule: Q01DX005 (ip), vehicle: water 105 % of control | endpoint: mean survival time, dose: 6.25 mg/kg/injection, schedule: Q01DX005 (ip), vehicle: water 107 % of control | endpoint: mean survival time, dose: 12.5 mg/kg/injection, schedule: Q01DX005 (ip), vehicle: water 108 % of control | endpoint: mean survival time, dose: 25.0 mg/kg/injection, schedule: Q01DX005 (ip), vehicle: water 110 % of control | endpoint: mean survival time, dose: 50.0 mg/kg/injection, schedule: Q01DX005 (ip), vehicle: water 121 % of control | endpoint: mean survival time, dose: 100.0 mg/kg/injection, schedule: Q01DX005 (ip), vehicle: water 96 % of control

C[N+](C)(C)/N=C\c1cccc2ccccc12
inactive: endpoint: mean survival time, dose: 6.25 mg/kg/injection, schedule: Q01DX009 (ip), vehicle: saline with Tween-80 111 % of control | endpoint: mean survival time, dose: 12.5 mg/kg/injection, schedule: Q01DX009 (ip), vehicle: saline with Tween-80 107 % of control | [13] 104 % of control

N#CC(c1cccnc1)N1CCOCC1 (centres undefined)
inactive: [13] 98 % of control | [12] 103 % of control
